# From patent publication US20090036464A1, “Treatment Of Posterior Capsule Opacification” (priority 2004, published 2009)
# Columns and labels:
# [1] = tested on: human lens cell line FHL124; assay: FHL124 cell growth patch assay; assay type: cell-based; settings: for growth of FHL124 cells: 4 days
# Description: The effect of sigma ligands on human lens cell growth in FHL124 cell line maintained in serum-free media (A) or EMEM supplemented with 5% FCS (B). […] The cells were cultured for 4 days with experimental conditions. Experiments were repeated on 4 occasions. Data are expressed as Mean±S.E.M., the star represents significant difference from untreated control with rimcazole, and box represents significant difference from untreated control with (±)SKF 10047 (test p<0.05).
# The effect of sigma-1 ligands on human lens cell growth in FHL 124 cell line maintained in serum-free media. A represents the data of patch area measurement. B represents the dye extraction from each stained patch, ie. cell number. The cells were cultured for 4 days with experimental conditions. Experiments were repeated on 4 occasions. Data are expressed as Mean±S.E.M, the star represents significant difference from untreated control with rimcazole, and ▪ represents significant difference from untreated control with (±)SKF10047 (test p<0.05).
# The growth of the spontaneously immortal human lens cell line FHL124 was investigated using a patch assay. Cells grown from a single patch derived from a coverslip and stained with dye to estimate the cell number. […] (FIG. 6). […] Attenuation of rimcazole and BD-1047-mediated growth inhibition by a highly specific sigma-1 agonist confirms that growth inhibition is at least partly mediated through antagonism of sigma-1 sites.
# [2] = tested on: adult dermal microvascular endothelial cells; assay: MTS cell viability, rescue by sigma-1 agonists; assay type: cell-based, human; settings: co-administration of equimolar concentrations (10 μM) of sigma-1 agonist
# Description: (§1) Human adult male dermal fibroblasts, adult mammary epithelial cells, adult dermal microvascular endothelial cells and bovine lens epithelial cells at low passage were exposed to 10 μM concentrations of the sigma-1 antagonists rimcazole and IPAG for up to 72 hours. Change in cell viability over time was measured in the MTS assay; data points represent mean values (±SD), obtained from wells in triplicate, expressed relative to baseline (pre-treatment) values. Graphs depict representative experiments, performed at least three times.
# [3] = tested on: primary human lens epithelial cells on the posterior capsule; assay: pigmentation of lens cells during growth inhibition assays; assay type: cell-based; settings: sub-lethal dose (3 μM), control cells remained clear, FIG. 8, 9
# Description: Phase micrographs of cultured human lens cells on central anterior (upper) and posterior capsule (lower) respectively. The cells were maintained in serum-free or supplemented (3 μM Rimcazole) media for one week. The images were converted to grayscale with Adobe photoshop software.
# Formation of pigment granules in human epithelial cells. A. Different stages of pigment granule formation (I-IV) as defined in MNT-1 melanoma cells by Seiji et al. 1963. B. Cross section of human lens epithelial cells grown in (a) control medium and (b) the presence of 3 μM BD1047.
# (§2) The bags were maintained in Eagle's minimum essential medium (EMEM) or EMEM supplemented with either 3 μM Rimcazole dihydrochloride (rimcazole), 10 μm(+)-SKF 10047 hydrochloride (SKF), and 3 μM or 10 μM BD1047 dihydrochloride (BD1047) (all supplied by TOCRIS) and incubate at 35° C. in a 5% CO2 atmosphere. The medium was replaced every 2 days and ongoing observations and analyses were performed as above.
# This pigmentation was also present in cells similarly tested on the rhexis (anterior capsule) removed during preparation of the capsular bag (FIG. 8) and in the FHL-124 lens cell line (not shown). […]
# tumour cells = assay: tumour cell growth inhibition / killing; assay type: cell-based, human; settings: read-out: IC50 (concentration of drug required to produce 50% growth inhibition) for tumour cells
# Text: It has therefore been proposed that the subcellular localisation of the sigma receptor may contribute to the degree of susceptibility to sigma ligands (Spruce et al Cancer Research 2004). Without wishing to be bound by theory, the present inventors postulated that differential subcellular localisation of the sigma receptor, or other factors, could lead to sigma ligands being differentially potent in lens epithelial cells compared to tumour cells. […] Specifically, the IC50 (the concentration of drug required to produce 50% growth inhibition) of BD-1047 for tumour cells is in the region 50-100 micromolar; in contrast, the IC50 for human lens epithelial cells (in the capsular bag system) is in the region of 10 micromolar.
# (§3) Rate of cell coverage of the posterior capsule beyond the rhexis; 100% represents confluency. Experiments were repeated on 4 occasions.
# [4] = tested on: human lens epithelial cells on the posterior capsule; assay: in vitro capsular bag growth assay (cell coverage of the posterior capsule); assay type: cell-based; settings: for growth of human lens cells on the posterior capsule: 3 μm, FIG. 2, FIG. 3
# Description: Rate of cell coverage of the posterior capsule beyond the rhexis; 100% represents confluency. Experiments were repeated on 4 occasions. The means and standard errors are display ed.
# as §3
# The model previously described by Liu et al (1996) was used. A sham cataract operation was performed on human donor eyes. The resultant capsular bag was then dissected free of the zonules and secured on a sterile 35 mm PMMA petri dish. Eight entomological pins (D1: Watkins and Doncaster Ltd., Kent, UK) were inserted through the edge of the capsule to retain its circular shape. Incubation was at 35° C. in a 5% CO2 atmosphere. Ongoing observations were performed with a Nikon phase-contrast microscope and images captured with a digital camera (Coolpix 950; Nikon. Tokyo, Japan) with associated imaging software (a person, personal communication). In some cases preparations were used for radioactive isotope studies.
# as §2
# [5] = tested on: bovine lens epithelial cells; assay: in vitro cell death assay (MTS cell viability) on tissue culture plastic; assay type: cell-based; settings: 10 μM, up to 72 hours, FIG. 1
# Description: as §1
# [6] = tested on: lens epithelial cells in the presence of the bovine capsule; settings: versus cells cultured in isolation; cited from earlier work
# [7] = tested on: human lens epithelial cells; assay: efflux of radioactive isotopes (3H-dopamine, 14C-tyrosine) in capsular bags; assay type: cell-based; settings: capsular bag system, 3 μM rimcazole
# Description: Efflux of (A) ^3H-dopamine and (B) ^14C-tyrosine from human lens epithelial cells in control (SF) and rimcazole supplemented media. Data are presented as mean±6 separate experiments.
# Capsular bags were maintained in Eagle's minimum essential medium (EMEM) or EMEM supplemented with 3 μM. Rimcazole dihydrochloride (rimcazole) (TOCRIS) for 7 days (when the pigment granules could be observed in cells). 1 μCl/ml of ^3H-dopamine and 2 μCi/ml of ^14C-tyrosine (Amersham Biosciences) were then added to each dish for an additional 24 hours. At the end point, 10 μl of medium were collected from each dish, and transferred into scintillation vials. The bags were washed briefly twice with EMEM and fresh control or experimental media added for one hour. The medium was then collected into scintillation vials and the procedure repeated eights times. The experiment was then terminated by adding 1 ml of ice-cold 5% Trichloroacetic acid (TCA) (Fisher Chemicals) to each dish. After 30 minutes, the TCA was removed from each well to determine the cytosolic dopamine and tyrosine levels. 1 ml of 250 mM NaOH was then added to each dish to determine the radio-isotope levels in the TCA precipitable fraction. 10 mls of scintillation fluid (Hisafe Supermix) were then added to each scintillation vial and the samples assayed using a Wallac scintillation counter with appropriate background controls. […]
smiles,measurement,setting,value
"C=CCN1CCC2(C)c3cc(O)ccc3CC1C2C.Cl (single isomer, unassigned; (+)) [(+)-SKF10047, (+)-SKF 10047 hydrochloride]",rescue of sigma antagonist (rimcazole)-mediated growth inhibition of FHL124 cells,"[1]; both concentrations, serum free medium, FIG. 5",partially rescues
same,restoration of growth to BD1047 inhibited FHL124 cells,"[1]; higher concentrations of BD1047 (10 and 30 μm), FIG. 6",partially restores growth
same,protection of microvascular endothelial cells from rimcazole and IPAG,[2],protected
"CC(C)=CCN1CCC2(C)c3cc(O)ccc3CC1C2C (single isomer, unassigned; (+)) [(+)-pentazocine]",protection of microvascular endothelial cells from rimcazole and IPAG,[2],protected
CN(C)CCN(C)CCc1ccc(Cl)c(Cl)c1 [BD1047],pigmentation of primary human lens epithelial cells,[3],become pigmented
same,IC50,tumour cells,50 to 100 µM
same,"growth inhibition of FHL124 cells (patch size, protein content)","[1]; lower dose (10 μm), serum-free, FIG. 6",less effective
same,growth of human lens cells on the posterior capsule,[4],less inhibitory
same,growth of lens cells on the capsule,"[4]; 10 μm, FIG. 4",potently inhibits growth
same,IC50,[4]; in the capsular bag system,~10 µM
NC(=NC1C2CC3CC(C2)CC1C3)Nc1ccc(I)cc1 (centres unmarked) [IPAG],susceptibility of primary bovine lens cells in tissue culture compared with tumour cells,[5],almost as susceptible
C[C@@H]1CN(CCCn2c3ccccc3c3ccccc32)C[C@H](C)N1 [Rimcazole],ability to induce apoptosis in lens epithelial cells,[6],substantially less able to induce apoptosis
same,susceptibility of primary bovine lens cells in tissue culture compared with tumour cells,[5],almost as susceptible
same,pigmentation of primary human lens epithelial cells,[3],become pigmented
same,growth of FHL124 cells,"[1]; 3 and 10 μm, serum free medium, FIG. 5",significantly inhibited
same,growth of FHL124 cells,"[1]; 5% FCS, higher dose (10 μm), FIG. 5",growth inhibition is less marked
same,dopamine efflux,[7]; FIG. 10A,unaffected
same,efflux of 14C-tyrosine from lens cells,[7]; FIG. 10B,no effect
same,growth of human lens cells on the posterior capsule,[4],inhibits growth
same,cell killing in human lens epithelial cells,[4]; contained in the human capsular bag system,potently induces cell killing
